Assay results as given in US4882313A, “Carboxamide derivatives of glycopeptides” (SmithKline Beckman Corporation, priority 1987, dated 1989).

Legend:
Test in all cases: standard microtiter assay, minimum inhibitory concentration
Assay type in all cases: cell-based
Staphylococcus aureus = conditions: for minimum inhibitory concentration of antibiotic, Test Organism 1: Test Organism 1, strain of Staphylococcus aureus; for minimum inhibitory concentration of antibiotic, Test Organism 2: Test Organism 2, strain of Staphylococcus aureus; for minimum inhibitory concentration of antibiotic, Test Organism 3: Test Organism 3, strain of Staphylococcus aureus; for minimum inhibitory concentration of antibiotic, Test Organism 4: Test Organism 4, strain of Staphylococcus aureus; for minimum inhibitory concentration of antibiotic, Test Organism 5: Test Organism 5, strain of Staphylococcus aureus
Text: (§1) Representative results of standard microtiter assays are reported in Table 1 which follows, as the minimum inhibitory concentration of antibiotic (mg/ml). In Table 1, test organisms 1-5 were different strains of Staphylococcus aureus; 6, 8, 11, 13 and 14 were different strains of Staphylococcus epidermidis; 7 was a Staphylococcus haemolyticus; 9 and 10 were different strains of Streptococcus faecalis; and 12 was a Staphylococcus saprophyticus.

[1] = system: Staphylococcus haemolyticus; conditions: Test Organism 7, Staphylococcus haemolyticus
Text: as §1

[2] = system: Staphylococcus saprophyticus; conditions: Test Organism 12, Staphylococcus saprophyticus
Text: as §1

Streptococcus faecalis = conditions: for minimum inhibitory concentration of antibiotic, Test Organism 9: Test Organism 9, strain of Streptococcus faecalis; for minimum inhibitory concentration of antibiotic, Test Organism 10: Test Organism 10, strain of Streptococcus faecalis
Text: as §1

[3] = system: Staphylococcus epidermidis; parameters: minimum inhibitory concentration of antibiotic, Test Organism 8: unit not given here; conditions: for minimum inhibitory concentration of antibiotic, Test Organism 6: Test Organism 6, strain of Staphylococcus epidermidis; for minimum inhibitory concentration of antibiotic, Test Organism 8: Test Organism 8, strain of Staphylococcus epidermidis; for minimum inhibitory concentration of antibiotic, Test Organism 11: Test Organism 11, strain of Staphylococcus epidermidis; for minimum inhibitory concentration of antibiotic, Test Organism 13: Test Organism 13, strain of Staphylococcus epidermidis; for minimum inhibitory concentration of antibiotic, Test Organism 14: Test Organism 14, strain of Staphylococcus epidermidis
Text: as §1

| Compound | minimum inhibitory concentration of antibiotic, Test Organism 1 (Staphylococcus aureus) | minimum inhibitory concentration of antibiotic, Test Organism 2 (Staphylococcus aureus) | minimum inhibitory concentration of antibiotic, Test Organism 3 (Staphylococcus aureus) | minimum inhibitory concentration of antibiotic, Test Organism 4 (Staphylococcus aureus) | minimum inhibitory concentration of antibiotic, Test Organism 5 (Staphylococcus aureus) | minimum inhibitory concentration of antibiotic, Test Organism 7 [1] | minimum inhibitory concentration of antibiotic, Test Organism 12 [2] | minimum inhibitory concentration of antibiotic, Test Organism 9 (Streptococcus faecalis) | minimum inhibitory concentration of antibiotic, Test Organism 10 (Streptococcus faecalis) | minimum inhibitory concentration of antibiotic, Test Organism 6 [3] | minimum inhibitory concentration of antibiotic, Test Organism 8 [3] | minimum inhibitory concentration of antibiotic, Test Organism 11 [3] | minimum inhibitory concentration of antibiotic, Test Organism 13 [3] | minimum inhibitory concentration of antibiotic, Test Organism 14 [3] |
| --- | --- | --- | --- | --- | --- | --- | --- | --- | --- | --- | --- | --- | --- | --- |
| CNC1C(=O)NC2C(=O)NC(C(=O)NC3C(=O)NC4C(=O)NC(C(=O)NC(C(=O)NCCN)c5cc(O)cc(O)c5-c5cc4ccc5O)C(O)c4cc(Cl)c(c(Cl)c4)Oc4cc3cc(c4O)Oc3ccc(cc3Cl)C2O)c2cc(cc(O)c2Cl)Oc2cc1ccc2O (stereo not drawn) [Compound 2e, Ardacin aglycone-(2-aminoethyl amide)] | 0.05 mg/mL | 0.05 mg/mL | 0.05 mg/mL | 0.2 mg/mL | 0.05 mg/mL | 0.05 mg/mL | 0.05 mg/mL | 0.05 mg/mL | 0.1 mg/mL | 0.1 mg/mL | 0.1 | 0.1 mg/mL | 0.05 mg/mL | 0.05 mg/mL |
| CNC1C(=O)NC2C(=O)NC(C(=O)NC3C(=O)NC4C(=O)NC(C(=O)NC(C(=O)O)c5cc(O)cc(OC6OC(CO)C(O)C(O)C6O)c5-c5cc4ccc5O)C(O)c4cc(Cl)c(c(Cl)c4)Oc4cc3cc(c4O)Oc3ccc(cc3Cl)C2O)c2cc(cc(O)c2Cl)Oc2cc1ccc2O (stereo not drawn) [Compound 2b, Ardacin mannosylaglycone, reference compound] | 1.6 mg/mL | 1.6 mg/mL | 0.8 mg/mL | > 1.6 mg/mL | 1.6 mg/mL | 25 mg/mL | 3.1 mg/mL | 0.8 mg/mL | 0.8 mg/mL | 12.5 mg/mL | 6.3 | 25 mg/mL | 6.3 mg/mL | – |
| AAJ-271 C2 [Compound 2r, reference compound] | 0.8 mg/mL | 0.8 mg/mL | 0.2 mg/mL | 1.6 mg/mL | 0.8 mg/mL | 12.5 mg/mL | 1.6 mg/mL | 0.2 mg/mL | 0.2 mg/mL | 25 mg/mL | 12.5 | 25 mg/mL | 6.3 mg/mL | 3.1 mg/mL |
| Ardacin A [Compound 2i, reference compound] | 6.3 mg/mL | 3.1 mg/mL | 0.8 mg/mL | > 6.3 mg/mL | 3.1 mg/mL | 25 mg/mL | 12.5 mg/mL | 0.8 mg/mL | 0.8 mg/mL | 50 mg/mL | 25 | 25 mg/mL | 6.3 mg/mL | 5.1 mg/mL |
| CNC1C(=O)NC2C(=O)NC(C(=O)NC3C(=O)NC4C(=O)NC(C(=O)NC(C(=O)O)c5cc(O)cc(O)c5-c5cc4ccc5O)C(O)c4cc(Cl)c(c(Cl)c4)Oc4cc3cc(c4O)Oc3ccc(cc3Cl)C2O)c2cc(cc(O)c2Cl)Oc2cc1ccc2O (stereo not drawn) [Compound 2a, Ardacin aglycone, reference compound] | 0.8 mg/mL | 0.8 mg/mL | 0.4 mg/mL | 0.4 mg/mL | 0.8 mg/mL | 6.3 mg/mL | 1.6 mg/mL | 0.8 mg/mL | 0.8 mg/mL | 0.8 mg/mL | 3.1 | 1.6 mg/mL | 1.8 mg/mL | 0.8 mg/mL |
| CNC1C(=O)NC2C(=O)NC(C(=O)NC3C(=O)NC4C(=O)NC(C(=O)NC(C(=O)O)c5cc(O)cc(OC6OC(CO)C(O)C(O)C6O)c5-c5cc4ccc5O)C(O)c4ccc(c(Cl)c4)Oc4cc3cc(c4OC3OC(C(=O)O)C(O)C(O)C3NC(=O)CCCCCCCCC(C)C)Oc3ccc(cc3)C2O)c2cc(cc(O)c2Cl)Oc2cc1ccc2O (stereo not drawn) [Compound 2p, AAJ-271 C1, reference compound] | 0.4 mg/mL | 0.4 mg/mL | 0.2 mg/mL | 0.8 mg/mL | 0.4 mg/mL | 6.3 mg/mL | 1.6 mg/mL | 6.3 mg/mL | 6.3 mg/mL | 6.3 mg/mL | 25 | 25 mg/mL | 6.3 mg/mL | 6.3 mg/mL |
| CN[C@H](CC(C)C)C(=O)N[C@H]1C(=O)N[C@@H](CC(N)=O)C(=O)N[C@H]2C(=O)N[C@H]3C(=O)N[C@H](C(=O)N[C@H](C(=O)O)c4cc(O)cc(O)c4-c4cc3ccc4O)[C@H](O)c3ccc(c(Cl)c3)Oc3cc2cc(c3O[C@@H]2O[C@H](CO)[C@@H](O)[C@H](O)[C@H]2O[C@H]2C[C@](C)(N)[C@H](O)[C@H](C)O2)Oc2ccc(cc2Cl)[C@H]1O [Vancomycin, reference compound] | 3.1 mg/mL | 1.6 mg/mL | 1.6 mg/mL | > 3.1 mg/mL | 1.6 mg/mL | 3.1 mg/mL | 3.1 mg/mL | 3.1 mg/mL | 3.1 mg/mL | 3.1 mg/mL | – | 3.1 mg/mL | 3.1 mg/mL | 3.1 mg/mL |
